Source: patent publication US20070219161A1, “Preparation Process Of Oligoglycosaminoglycan, And Reducing End Glucuronic Acid Type Oligochondroitin Sulfate And Pharmaceutical Composition Comprising The Same” (priority 2004, published 2007)

Biological target: T1, CD44 (Homo sapiens, UniProt P16070)
T1 construct: endogenous in cells
Assay: CD44 shedding induction by synthetic oligosaccharide in a cancer cell
Format: cell-based
Settings: electrophoresis (FIG. 9) and CD44 shedding index with the state without stimulation set to 1 (FIG. 10)
Method: FIG. 8 is a flowchart showing the outline of the test method performed in Example 4.
FIG. 9 is a copy of the electrophoresis photograph in which the electrophoresis result of the test performed in Example 4 is shown.
About the compound of the formula (20) and (21) obtained in Example 1, a CD44 shedding induction ability in a cancer cell was evaluated according to the test method shown in FIG. 8.

T1 sequence (P16070 21-742, species assumed): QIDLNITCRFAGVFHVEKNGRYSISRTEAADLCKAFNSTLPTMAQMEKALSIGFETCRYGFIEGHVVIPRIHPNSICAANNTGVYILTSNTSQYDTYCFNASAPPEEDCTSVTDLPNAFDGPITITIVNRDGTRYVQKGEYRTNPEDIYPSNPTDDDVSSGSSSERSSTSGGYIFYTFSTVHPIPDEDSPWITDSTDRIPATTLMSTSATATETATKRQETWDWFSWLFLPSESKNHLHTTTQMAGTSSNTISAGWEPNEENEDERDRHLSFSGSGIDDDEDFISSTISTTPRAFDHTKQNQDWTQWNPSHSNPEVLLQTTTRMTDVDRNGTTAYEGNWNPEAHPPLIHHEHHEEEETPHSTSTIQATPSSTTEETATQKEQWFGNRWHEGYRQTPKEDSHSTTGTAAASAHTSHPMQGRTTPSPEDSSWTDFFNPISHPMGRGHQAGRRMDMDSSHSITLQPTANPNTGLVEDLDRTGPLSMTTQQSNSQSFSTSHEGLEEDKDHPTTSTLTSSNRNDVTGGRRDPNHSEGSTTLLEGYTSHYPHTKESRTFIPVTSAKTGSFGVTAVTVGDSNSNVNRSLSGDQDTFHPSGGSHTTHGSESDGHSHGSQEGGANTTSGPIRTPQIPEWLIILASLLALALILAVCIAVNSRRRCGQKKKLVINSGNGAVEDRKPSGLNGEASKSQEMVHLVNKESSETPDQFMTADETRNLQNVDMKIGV

Substance: β-D-GalNAc-(1->[4]-β-D-GlcA-(1->3)-β-D-GalNAc-(1->)24)-β-D-GlcA-(1->OMP [compound of the formula (20)]
- CD44 shedding induction ability: induced the shedding of a CD44

Substance: β-D-GalNAc(4,6-di-OSO3Na)-(1->[4]-β-D-GlcA-(1->3)-β-D-GalNAc(4,6-di-OSO3Na)-(1->24)-β-D-GlcA-(1->OMP [compound of the formula (21)]
- CD44 shedding induction ability: induced more strongly
